{"source": "patent US3931141A", "about": "“Novel heptapeptides having gastrin activity” (Hoechst Aktiengesellschaft, priority 1972, dated 1976)", "origin": "cited, not measured here", "test_system": "stomach", "settings": "The Lancet 1966, page 933", "data": [{"substance": "Boc--β--Ala--Trp--Met--Asp--Phe--NH2 [formula IV]", "values": [{"measurement": "stimulating action (acid production and quantity secreted) compared with other synthetic peptides", "result": "strongest stimulating action"}]}]}
